Ki data for 27 compounds are collected here from patent publication US9283222B2 (priority 2006, dated 2016).

In this experiment the target is Recombinant Human Poly(ADP-Ribose) Polymerase (PARP), PARP-1 (Homo sapiens (Human), UniProt P09874). The conditions noted are these: read-out: PARP-1 (Ki); Table 1; text calls the values EC50s.

For orientation: Ki means the dissociation constant of the complex between target and ligand, obtained from inhibition or displacement.

Chain of Recombinant Human Poly(ADP-Ribose) Polymerase (PARP), PARP-1 (P09874 whole entry): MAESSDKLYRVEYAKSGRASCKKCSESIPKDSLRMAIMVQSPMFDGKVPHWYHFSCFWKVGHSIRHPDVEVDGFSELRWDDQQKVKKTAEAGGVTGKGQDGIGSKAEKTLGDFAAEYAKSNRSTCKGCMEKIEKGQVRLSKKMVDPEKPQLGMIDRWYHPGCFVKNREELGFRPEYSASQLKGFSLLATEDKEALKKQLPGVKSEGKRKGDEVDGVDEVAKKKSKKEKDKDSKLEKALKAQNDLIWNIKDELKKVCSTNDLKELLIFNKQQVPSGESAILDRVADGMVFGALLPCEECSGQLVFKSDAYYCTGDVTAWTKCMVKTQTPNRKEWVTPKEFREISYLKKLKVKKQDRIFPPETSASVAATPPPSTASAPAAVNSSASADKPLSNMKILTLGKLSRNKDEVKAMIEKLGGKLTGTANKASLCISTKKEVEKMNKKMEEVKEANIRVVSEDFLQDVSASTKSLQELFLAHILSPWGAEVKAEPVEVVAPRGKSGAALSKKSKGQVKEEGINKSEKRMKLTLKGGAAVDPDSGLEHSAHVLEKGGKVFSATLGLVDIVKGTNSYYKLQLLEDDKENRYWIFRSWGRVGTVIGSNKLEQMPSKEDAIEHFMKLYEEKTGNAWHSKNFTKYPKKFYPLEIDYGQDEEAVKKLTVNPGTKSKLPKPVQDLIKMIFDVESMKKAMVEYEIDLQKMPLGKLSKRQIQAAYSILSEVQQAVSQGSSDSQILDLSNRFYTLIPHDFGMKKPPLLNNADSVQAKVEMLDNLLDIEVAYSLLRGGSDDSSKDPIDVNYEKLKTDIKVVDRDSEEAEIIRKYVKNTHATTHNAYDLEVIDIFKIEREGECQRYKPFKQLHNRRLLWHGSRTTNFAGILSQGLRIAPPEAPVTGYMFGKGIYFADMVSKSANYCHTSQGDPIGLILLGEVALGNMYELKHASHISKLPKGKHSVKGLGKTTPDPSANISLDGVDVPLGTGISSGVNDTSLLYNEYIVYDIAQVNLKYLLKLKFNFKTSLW

In the case of `O=c1[nH]nc(Cc2cccc(NS(=O)(=O)c3cccs3)c2)c2c1CCCC2` [Example 120, N-(3-((4-oxo-3,4,5,6,7,8-hexahydrophthalazin-1-yl)methyl)phenyl)thiophene-2-sulfonamide], the Ki was 626 nM.
Turning to `N#Cc1ccc(S(=O)(=O)Nc2cccc(Cc3n[nH]c(=O)c4c3CCCC4)c2)cc1` [Example 121, 4-cyano-N-(3-((4-oxo-3,4,5,6,7,8-hexahydrophthalazin-1-yl)methyl)phenyl)benzenesulfonamide], the Ki was found to be 776 nM.
For `O=C1CCCN1c1cccc(Cc2n[nH]c(=O)c3c2CCCC3)n1` [Example 125, 4-((6-(2-oxopyrrolidin-1-yl)pyridin-2-yl)methyl)-5,6,7,8-tetrahydrophthalazin-1(2H)-one] the value was 47 nM.
With `O=C(Nc1cccc(Cc2n[nH]c(=O)c3c2CCCC3)n1)c1ccccc1` [Example 126, N-(6-((4-oxo-3,4,5,6,7,8-hexahydrophthalazin-1-yl)methyl)pyridin-2-yl)benzamide] the figure was 286 nM; with `O=c1[nH]nc(Cc2cccc(-c3cccc(CNC4CCCC4)c3)c2)c2c1CCCC2` [Example 128, 4-((3′-((cyclopentylamino)methyl)-1,1′-biphenyl-3-yl)methyl)-5,6,7,8-tetrahydrophthalazin-1(2H)-one], 43 nM; with `CC1CCCN1Cc1cccc(-c2cccc(Cc3n[nH]c(=O)c4c3CCCC4)c2)c1` (stereo not drawn) [Example 129, 4-((3′-((2-methylpyrrolidin-1-yl)methyl)-1,1′-biphenyl-3-yl)methyl)-5,6,7,8-tetrahydrophthalazin-1(2H)-one], 41 nM.
For `O=c1[nH]nc(Cc2cccc(-c3cccc(CNC4CC4)c3)c2)c2c1CCCC2` [Example 130, 4-((3′-((cyclopropylamino)methyl)-1,1′-biphenyl-3-yl)methyl)-5,6,7,8-tetrahydrophthalazin-1(2H)-one] the value was 24 nM; for `O=c1[nH]nc(Cc2cccc(-c3cccc(CNC4CCC4)c3)c2)c2c1CCCC2` [Example 131, 4-((3′-((cyclobutylamino)methyl)-1,1′-biphenyl-3-yl)methyl)-5,6,7,8-tetrahydrophthalazin-1(2H)-one], 32 nM; for `O=c1[nH]nc(Cc2cc[n+]([O-])c(Br)c2)c2c1CCCC2` [Example 132, 4-((2-bromo-1-oxidopyridin-4-yl)methyl)-5,6,7,8-tetrahydrophthalazin-1(2H)-one], 1040 nM.
Turning to `O=C1CCCN1c1cc(Cc2n[nH]c(=O)c3c2CCCC3)cc[n+]1[O-]` [Example 133, 4-((1-oxido-2-(2-oxopyrrolidin-1-yl)pyridin-4-yl)methyl)-5,6,7,8-tetrahydrophthalazin-1(2H)-one], the Ki is 724 nM.
With `CC1(C(=O)Nc2cccc(Cc3n[nH]c(=O)c4c3CCCC4)c2)CC1` [Example 136, 1-methyl-N-(3-((4-oxo-3,4,5,6,7,8-hexahydrophthalazin-1-yl)methyl)phenyl)cyclopropanecarboxamide] the figure was 76 nM; with `CC1CC1C(=O)Nc1cccc(Cc2n[nH]c(=O)c3c2CCCC3)c1` (stereo not drawn) [Example 137, 2-methyl-N-(3-((4-oxo-3,4,5,6,7,8-hexahydrophthalazin-1-yl)methyl)phenyl)cyclopropanecarboxamide], 69 nM.
With `CCOCCC(=O)Nc1cccc(Cc2n[nH]c(=O)c3c2CCCC3)c1` [Example 138, 3-ethoxy-N-(3-((4-oxo-3,4,5,6,7,8-hexahydrophthalazin-1-yl)methyl)phenyl)propanamide], the Ki is 22 nM.
With `O=C1CC[C@@H](C(=O)Nc2cccc(Cc3n[nH]c(=O)c4c3CCCC4)c2)N1` [Example 139, 5-oxo-N-(3-((4-oxo-3,4,5,6,7,8-hexahydrophthalazin-1-yl)methyl)phenyl)-L-prolinamide] the figure was 206 nM; with `O=C1CC[C@H](C(=O)Nc2cccc(Cc3n[nH]c(=O)c4c3CCCC4)c2)N1` [Example 140, 5-oxo-N-(3-((4-oxo-3,4,5,6,7,8-hexahydrophthalazin-1-yl)methyl)phenyl)-D-prolinamide], 60 nM; with `NC(=O)C1(C(=O)Nc2cccc(Cc3n[nH]c(=O)c4c3CCCC4)c2)CC1` [Example 141], 77 nM.
For `O=C(COCc1ccccc1)Nc1cccc(Cc2n[nH]c(=O)c3c2CCCC3)c1` [Example 142, 2-(benzyloxy)-N-(3-((4-oxo-3,4,5,6,7,8-hexahydrophthalazin-1-yl)methyl)phenyl)acetamide] the value was 11 nM.
In the case of `O=C(CCc1ccccc1)Nc1cccc(Cc2n[nH]c(=O)c3c2CCCC3)c1` [Example 143, N-(3-((4-oxo-3,4,5,6,7,8-hexahydrophthalazin-1-yl)methyl)phenyl)-3-phenylpropanamide], the Ki came to 78 nM.
With `COc1ccc(OC)c(CCC(=O)Nc2cccc(Cc3n[nH]c(=O)c4c3CCCC4)c2)c1` [Example 144, 3-(2,5-dimethoxyphenyl)-N-(3-((4-oxo-3,4,5,6,7,8-hexahydrophthalazin-1-yl)methyl)phenyl)propanamide] the figure was 125 nM; with `O=C(Nc1cccc(Cc2n[nH]c(=O)c3c2CCCC3)c1)C1(c2ccccc2)CC1` [Example 145, N-(3-((4-oxo-3,4,5,6,7,8-hexahydrophthalazin-1-yl)methyl)phenyl)-1-phenylcyclopropanecarboxamide], 57 nM.
For `CC[C@H](C(=O)Nc1cccc(Cc2n[nH]c(=O)c3c2CCCC3)c1)c1ccccc1` [Example 146, (2S)-N-(3-((4-oxo-3,4,5,6,7,8-hexahydrophthalazin-1-yl)methyl)phenyl)-2-phenylbutanamide] the value was 678 nM; for `O=C(CCCc1ccccc1)Nc1cccc(Cc2n[nH]c(=O)c3c2CCCC3)c1` [Example 147, N-(3-((4-oxo-3,4,5,6,7,8-hexahydrophthalazin-1-yl)methyl)phenyl)-4-phenylbutanamide], 41 nM; for `Cc1cccc(OCC(=O)Nc2cccc(Cc3n[nH]c(=O)c4c3CCCC4)c2)c1` [Example 148, 2-(3-methylphenoxy)-N-(3-((4-oxo-3,4,5,6,7,8-hexahydrophthalazin-1-yl)methyl)phenyl)acetamide], 74 nM.
With `Cc1ccccc1OCC(=O)Nc1cccc(Cc2n[nH]c(=O)c3c2CCCC3)c1` [Example 149, 2-(2-methylphenoxy)-N-(3-((4-oxo-3,4,5,6,7,8-hexahydrophthalazin-1-yl)methyl)phenyl)acetamide] the figure was 22 nM; with `Cc1ccc(OCC(=O)Nc2cccc(Cc3n[nH]c(=O)c4c3CCCC4)c2)cc1` [Example 150, 2-(4-methylphenoxy)-N-(3-((4-oxo-3,4,5,6,7,8-hexahydrophthalazin-1-yl)methyl)phenyl)acetamide], 16 nM.
Consider `CO[C@@H](C(=O)Nc1cccc(Cc2n[nH]c(=O)c3c2CCCC3)c1)c1ccccc1` [Example 151, (2R)-2-methoxy-N-(3-((4-oxo-3,4,5,6,7,8-hexahydrophthalazin-1-yl)methyl)phenyl)-2-phenylacetamide], for which the Ki amounted to 531 nM.
With `CO[C@H](C(=O)Nc1cccc(Cc2n[nH]c(=O)c3c2CCCC3)c1)c1ccccc1` [Example 152, (2S)-2-methoxy-N-(3-((4-oxo-3,4,5,6,7,8-hexahydrophthalazin-1-yl)methyl)phenyl)-2-phenylacetamide] the figure was 741 nM.
